A value given as a limit tells only on which side of the number the result lay.

Chain of human BACE1 (P56817 46-501): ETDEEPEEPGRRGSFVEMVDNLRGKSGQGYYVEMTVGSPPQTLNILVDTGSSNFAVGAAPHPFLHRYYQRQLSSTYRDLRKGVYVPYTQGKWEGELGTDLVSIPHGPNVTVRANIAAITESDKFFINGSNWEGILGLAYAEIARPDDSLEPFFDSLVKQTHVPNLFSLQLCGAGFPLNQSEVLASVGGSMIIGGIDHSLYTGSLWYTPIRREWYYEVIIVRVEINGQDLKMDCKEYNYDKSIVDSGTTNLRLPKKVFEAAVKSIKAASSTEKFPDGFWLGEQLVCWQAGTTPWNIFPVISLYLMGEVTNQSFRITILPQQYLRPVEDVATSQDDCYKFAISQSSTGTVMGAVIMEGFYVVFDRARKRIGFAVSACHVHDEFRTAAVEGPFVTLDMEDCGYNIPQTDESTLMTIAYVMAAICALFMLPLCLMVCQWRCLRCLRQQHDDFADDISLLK

In this assay the target is human BACE1 (Homo sapiens, UniProt P56817). The assay is described as follows: BACE1 fluorescent kinetic assay (cleavage of peptide substrate WABC-6). It counts as biochemical. The conditions noted are these: Activity Table, Examples 1-108; 10 nM enzyme, 25 μM substrate WABC-6, pH 4.5, room temperature. As for the experimental part:
Evaluation of BACE1 Binding Affinity of Test Compounds
Fluorescent Kinetic Assays
Dilution and mixing steps: total reaction volume: 100 μL
100 μM substrate dilution in 1×PBS was prepared, and
Fluorescence Readings: Readings at λex 320 nm and λem 420 nm are taken every 40 sec for 30 min at room temperature and the linear slope for substrate cleavage rate (vi) determined.
Take `CN1C(=O)[C@@](c2ccc(OC(F)F)cc2)(c2cccc(C#CCCCF)c2)N=C1N` [Example 19E, (5R)-2-amino-5-[4-(difluoromethoxy)phenyl]-5-[3-(5-fluoropent-1-yn-1-yl)phenyl]-3-methyl-3,5-dihydro-4H-imidazol-4-one]: the IC50 was less than 100 nM.

In the case of `CN1C(=O)[C@](c2ccc(OC(F)F)cc2)(c2cccc(C#CCCCF)c2)N=C1N` [Example 19F, (5S)-2-amino-5-[4-(difluoromethoxy)phenyl]-5-[3-(5-fluoropent-1-yn-1-yl)phenyl]-3-methyl-3,5-dihydro-4H-imidazol-4-one], the IC50 was greater than 1000 nM. With `CN1C(=O)C(c2ccc(OC(F)F)cc2)(c2ccc(F)c(C#CCCCCl)c2)N=C1N` (centres unmarked) [Example 20A, 2-amino-5-[3-(5-chloropent-1-yn-1-yl)-4-fluorophenyl]-5-[4-(difluoromethoxy)phenyl]-3-methyl-3,5-dihydro-4H-imidazol-4-one] the figure was less than 100 nM; with `CN1C(=O)C(c2ccc(OC(F)F)cc2)(c2cccc(C#CCCCCl)c2)N=C1N` (centres unmarked) [Example 20B, 2-amino-5-[3-(5-chloropent-1-yn-1-yl)-phenyl]-5-[4-(difluoromethoxy)phenyl]-3-methyl-3,5-dihydro-4H-imidazol-4-one], less than 100 nM. The figure for `CCC(=O)Nc1cccc(C2(c3ccc(OC(F)F)cc3)N=C(N)N(C)C2=O)c1` (centres unmarked) [Example 21] is 110 to 1000 nM.

As to `CCCC(=O)Nc1cccc(C2(c3ccc(OC(F)F)cc3)N=C(N)N(C)C2=O)c1` (centres unmarked) [Example 22], the IC50 lay in the range of 110 to 1000 nM. `CCCCC(=O)Nc1cccc(C2(c3ccc(OC(F)F)cc3)N=C(N)N(C)C2=O)c1` (centres unmarked) [Example 23] had an IC50 of 110 to 1000 nM. In the case of `CN1C(=O)C(c2ccc(OC(F)F)cc2)(c2cccc(NC(=O)CCCl)c2)N=C1N` (centres unmarked) [Example 24], the IC50 lay in the range of 110 to 1000 nM. With `CN1C(=O)C(c2ccc(OC(F)F)cc2)(c2cccc(NC(=O)C(F)(F)F)c2)N=C1N` (centres unmarked) [Example 25] the figure was less than 100 nM; with `CC(C)CC(=O)Nc1cccc(C2(c3ccc(OC(F)F)cc3)N=C(N)N(C)C2=O)c1` (centres unmarked) [Example 26], less than 100 nM. The figure for `CC(C)C(=O)Nc1cccc(C2(c3ccc(OC(F)F)cc3)N=C(N)N(C)C2=O)c1` (centres unmarked) [Example 27] is 110 to 1000 nM; for `CN1C(=O)C(c2ccc(OC(F)F)cc2)(c2cccc(NC(=O)C3CC3)c2)N=C1N` (centres unmarked) [Example 28] it is 110 to 1000 nM.

In the case of `CN1C(=O)C(c2ccc(OC(F)F)cc2)(c2cccc(NC(=O)C3CCC3)c2)N=C1N` (centres unmarked) [Example 29], the IC50 lay in the range of 110 to 1000 nM.

Turning to `CC=CC(=O)Nc1cccc(C2(c3ccc(OC(F)F)cc3)N=C(N)N(C)C2=O)c1` (centres unmarked) [Example 30], the half-inhibitory concentration (IC50) was 110 to 1000 nM. Molecule `CC(C)=CC(=O)Nc1cccc(C2(c3ccc(OC(F)F)cc3)N=C(N)N(C)C2=O)c1` (centres unmarked) [Example 31] gave an IC50 greater than 1000 nM. Take `CN1C(=O)C(c2ccc(OC(F)F)cc2)(c2cccc(NC(=O)C=Cc3ccccc3)c2)N=C1N` (centres unmarked) [Example 32]: the IC50 fell in the range of 110 to 1000 nM.

The molecule `CN1C(=O)C(c2ccc(OC(F)F)cc2)(c2cccc(NC(=O)c3ccco3)c2)N=C1N` (centres unmarked) [Example 33] yielded an IC50 of less than 100 nM. `CN1C(=O)C(c2ccc(OC(F)F)cc2)(c2cccc(NC(=O)COCc3ccccc3)c2)N=C1N` (centres unmarked) [Example 34] yielded an IC50 of 110 to 1000 nM. Turning to `CN1C(=O)C(c2ccc(OC(F)F)cc2)(c2cccc(NC(=O)c3ccccc3)c2)N=C1N` (centres unmarked) [Example 35], the IC50 was 110 to 1000 nM.

In the case of `CN1C(=O)C(c2ccc(OC(F)F)cc2)(c2cccc(NC(=O)C(Cl)(Cl)Cl)c2)N=C1N` (centres unmarked) [Example 36], the IC50 was less than 100 nM. Consider `CN1C(=O)C(c2ccc(OC(F)F)cc2)(c2cccc(NC(=O)c3sccc3Br)c2)N=C1N` (centres unmarked) [Example 39], for which the IC50 was less than 100 nM. Molecule `CN1C(=O)C(c2ccc(OC(F)F)cc2)(c2cccc(NC(=O)c3coc4ccccc34)c2)N=C1N` (centres unmarked) [Example 40] yielded an IC50 of less than 100 nM. `CN1C(=O)C(c2ccc(OC(F)F)cc2)(c2cccc(NC(=O)c3cccs3)c2)N=C1N` (centres unmarked) [Example 42] returned an IC50 of 110 to 1000 nM. Take `CCCNc1cccc(C2(c3ccc(OC(F)F)cc3)N=C(N)N(C)C2=O)c1` (centres unmarked) [Example 43]: the IC50 was less than 100 nM.

As for `CCCCNc1cccc(C2(c3ccc(OC(F)F)cc3)N=C(N)N(C)C2=O)c1` (centres unmarked) [Example 44], the IC50 was less than 100 nM. In turn, `CC(C)CNc1cccc(C2(c3ccc(OC(F)F)cc3)N=C(N)N(C)C2=O)c1` (centres unmarked) [Example 45] registered an IC50 of less than 100 nM. Take `CC(C)Nc1cccc(C2(c3ccc(OC(F)F)cc3)N=C(N)N(C)C2=O)c1` (centres unmarked) [Example 46]: the IC50 fell in the range of 110 to 1000 nM. `CN1C(=O)C(c2ccc(OC(F)F)cc2)(c2cccc(NC3CCCC3)c2)N=C1N` (centres unmarked) [Example 47] yielded an IC50 of less than 100 nM. `CN1C(=O)C(c2ccc(OC(F)F)cc2)(c2cccc(NC3CCCCC3)c2)N=C1N` (centres unmarked) [Example 48] came in with a 50% inhibitory concentration (IC50) of 110 to 1000 nM. Molecule `CN1C(=O)C(c2ccc(OC(F)F)cc2)(c2cccc(NC3CCC3)c2)N=C1N` (centres unmarked) [Example 50] showed an IC50 of 110 to 1000 nM. Regarding `CN1C(=O)C(c2ccc(OC(F)F)cc2)(c2cccc(NCc3ccco3)c2)N=C1N` (centres unmarked) [Example 51], the IC50 was less than 100 nM.

As to `CN1C(=O)C(c2ccc(OC(F)F)cc2)(c2cccc(C3CC(=CCO)C3)c2)N=C1N` (centres unmarked) [Example 56, 2-amino-5-[4-(difluoromethoxy)phenyl]-5-{3-[3-(2-hydroxyethylidene)cyclobutyl]phenyl}-3-methyl-3,5-dihydro-4H-imidazol-4-one], the IC50 was greater than 1000 nM. `CN1C(=O)C(c2ccc(OC(F)F)cc2)(c2cccc(C3CC(CCF)C3)c2)N=C1N` (centres unmarked) [Example 58, 2-amino-5-[4-(difluoromethoxy)phenyl]-5-{3-[3-(2-fluoroethyl)cyclobutyl]phenyl}-3-methyl-3,5-dihydro-4H-imidazol-4-one] registered an IC50 of 110 to 1000 nM. Molecule `COCCC1CC(c2cccc(C3(c4ccc(OC(F)F)cc4)N=C(N)N(C)C3=O)c2)C1` (centres unmarked) [Example 59, 2-amino-5-[4-(difluoromethoxy)phenyl]-5-{3-[3-(2-methoxyethyl)cyclobutyl]phenyl}-3-methyl-3,5-dihydro-4H-imidazol-4-one] returned an IC50 of 110 to 1000 nM. `CN1C(=O)C(c2ccc(OC(F)F)cc2)(c2cccc(Nc3ccccc3)c2)N=C1N` (centres unmarked) [Example 60, 2-amino-5-(3-anilinophenyl)-5-[4-(difluoromethoxy)phenyl]-3-methyl-3,5-dihydro-4H-imidazol-4-one] returned an IC50 of 110 to 1000 nM.

`CC(C)NCc1cccc(C2(c3ccc(OC(F)F)cc3)N=C(N)N(C)C2=O)c1` (centres unmarked) [Example 61, 2-Amino-5-(4-difluoromethoxy-phenyl)-5-[3-(isopropylamino-methyl)-phenyl]-3-methyl-3,5-dihydro-imidazol-4-one] yielded an IC50 of 110 to 1000 nM. For `CN(C)Cc1cccc(C2(c3ccc(OC(F)F)cc3)N=C(N)N(C)C2=O)c1` (centres unmarked) [Example 62, 2-amino-5-[4-(difluoromethoxy)phenyl]-5-{3-[(dimethylamino)-methyl]phenyl}-3-methyl-3,5-dihydro-4H-imidazol-4-one], the IC50 is greater than 1000 nM.

Molecule `CCNCc1cccc(C2(c3ccc(OC(F)F)cc3)N=C(N)N(C)C2=O)c1` (centres unmarked) [Example 63, 2-amino-5-[4-(difluoromethoxy)phenyl]-5-{3-[(ethylamino)methyl]phenyl}-3-methyl-3,5-dihydro-4H-imidazol-4-one] gave an IC50 of 110 to 1000 nM.

Molecule `CCCNCc1cccc(C2(c3ccc(OC(F)F)cc3)N=C(N)N(C)C2=O)c1` (centres unmarked) [Example 64, 2-amino-5-[4-(difluoromethoxy)phenyl]-3-methyl-5-{3-[(propylamino)-methyl]phenyl}-3,5-dihydro-4H-imidazol-4-one] displayed an IC50 of 110 to 1000 nM. The molecule `CCCCNCc1cccc(C2(c3ccc(OC(F)F)cc3)N=C(N)N(C)C2=O)c1` (centres unmarked) [Example 65, 2-amino-5-{3-[(butylamino)methyl]phenyl}-5-[4-(difluoromethoxy)phenyl]-3-methyl-3,5-dihydro-4H-imidazol-4-one] displayed a half-inhibitory concentration (IC50) of 110 to 1000 nM. Take `CN1C(=O)C(c2ccc(OC(F)F)cc2)(c2cccc(CN3CCCC3)c2)N=C1N` (centres unmarked) [Example 66, 2-amino-5-[4-(difluoromethoxy)phenyl]-3-methyl-5-[3-(pyrrolidin-1-ylmethyl)phenyl]-3,5-dihydro-4H-imidazol-4-one]: the IC50 is greater than 1000 nM. The figure for `CN1C(=O)C(c2ccc(OC(F)F)cc2)(c2ccc(OC(F)F)cc2)N=C1N` [Example 67, 2-amino-5,5-bis[4-(difluoromethoxy)phenyl]-3-methyl-3,5-dihydro-4H-imidazol-4-one] is greater than 1000 nM; for `CN1C(=O)C(c2ccc(OC(F)F)cc2)(c2cccc(CNCc3ccco3)c2)N=C1N` (centres unmarked) [Example 68, 2-amino-5-[4-(difluoromethoxy)phenyl]-5-(3-{[(2-furylmethyl)-amino]methyl}phenyl)-3-methyl-3,5-dihydro-4H-imidazol-4-one] it is 110 to 1000 nM.

In turn, `C=CC[C@@H](C)c1cccc(C2(c3ccc(OC(F)F)cc3)N=C(N)N(C)C2=O)c1` (stereo partly drawn) [Example 69, 2-amino-4-(4-(difluoromethoxy)phenyl)-1-methyl-4-(3-((R)-pent-4-en-2-yl)phenyl)-1H-imidazol-5(4H)-one] displayed an IC50 of 110 to 1000 nM.

Molecule `CN1C(=O)C(c2ccc(OC(F)F)cc2)(c2cccc(C3CC3)c2)N=C1N` (centres unmarked) [Example 70, 2-amino-4-(3-cyclopropylphenyl)-4-(4-(difluoromethoxy)phenyl)-1-methyl-1H-imidazol-5(4H)-one] came in with an IC50 greater than 1000 nM. The molecule `COC/C=C(\C)c1cccc(C2(c3ccc(OC(F)F)cc3)N=C(N)N(C)C2=O)c1` (centres unmarked) [Example 71, (E)-2-amino-4-(4-(difluoromethoxy)phenyl)-4-(3-(4-methoxybut-2-en-2-yl)phenyl)-1-methyl-1H-imidazol-5(4H)-one] yielded an IC50 of 110 to 1000 nM. `CCOCCC#Cc1cccc(C2(c3ccc(OC(F)F)cc3)N=C(N)N(C)C2=O)c1` (centres unmarked) [Example 73, 2-Amino-5-[4-(difluoromethoxy)phenyl]-5-[3-(4-ethoxybut-1-yn-1-yl)phenyl]-3-methyl-3,5-dihydro-4H-imidazol-4-one] yielded an IC50 of less than 100 nM.

Source of the values: patent publication US7723368B2, “Amino-5-[4-(difluoromethoxy)phenyl]-5-phenylimidazolone compounds for the inhibition of beta-secretase” (Wyeth LLC, priority 2007, dated 2010).
